This note sets out measurements from PubChem BioAssay (NCI).

Structures are written as SMILES.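 Growth conditions: 96-well plates. Treatment: test compound, 48 hours, 5 concentrations. Analysis: linear interpolation between bracketing concentrations; unreached endpoints set to highest concentration. The concentration for full growth arrest is given as TGI.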

Among the test systems are 786-0 renal; A498 renal; A549 NSCLC; COLO 205 colon; HCT-15 colon; HOP-92 NSCLC; HS 578T breast; IGROV1 ovarian; MALME-3M melanoma; MCF7 breast; MDA-MB-231 breast; OVCAR-5 ovarian; OVCAR-8 ovarian; RXF 393 renal; SF-268 CNS; SK-MEL-28 melanoma; SN12C renal; SNB-19 CNS; SNB-75 CNS; UACC-257 melanoma.
Holding throughout (assay): NCI tumour cell line growth inhibition, 48 h

Regarding `CCOC(=O)CCC(NC(=O)c1ccc(Nc2cnc3ccc(C(F)(F)F)cc3n2)cc1)C(=O)OCC` (stereo not given), the TGI in the experiment on 786-0 renal is over 56.6 µM; in the experiment on A498 renal, over 79 µM; with A549 NSCLC it was over 100 µM; in the experiment with COLO 205 colon, over 100 µM; with HCT-15 colon, over 100 µM; in the experiment with HOP-92 NSCLC, over 43.1 µM. The TGI is over 65.9 µM in the experiment on HS 578T breast; over 47.2 µM in the experiment on IGROV1 ovarian; over 100 µM in the experiment with MALME-3M melanoma; over 100 µM in the experiment with MCF7 breast; 25.2 µM with MDA-MB-231 breast; over 100 µM with OVCAR-5 ovarian. Further, the TGI in the experiment on OVCAR-8 ovarian was 33.8 µM; in the experiment on RXF 393 renal, over 90.2 µM; in the experiment with SF-268 CNS, over 100 µM; in the experiment on SK-MEL-28 melanoma, over 100 µM; in the experiment on SN12C renal, over 100 µM; in the experiment on SNB-19 CNS, over 63.7 µM. Also, the TGI in the experiment with SNB-75 CNS is 29.9 µM; in the experiment on UACC-257 melanoma, over 100 µM.
On to `COc1cc2c(c(OC)c1OC)C(=O)[C@H](Br)[C@H]2NC(=O)NCCCl`, for which the TGI in the experiment with 786-0 renal, with A498 renal, in the experiment on A549 NSCLC, in the experiment with COLO 205 colon, with HCT-15 colon and in the experiment with HOP-92 NSCLC was over 100 µM in each case. Besides, the TGI with HS 578T breast, in the experiment on IGROV1 ovarian, in the experiment on MALME-3M melanoma, with MCF7 breast, in the experiment with MDA-MB-231 breast and in the experiment on OVCAR-5 ovarian was over 100 µM throughout. Besides, the TGI with OVCAR-8 ovarian, in the experiment with RXF 393 renal, in the experiment with SF-268 CNS, in the experiment on SK-MEL-28 melanoma, in the experiment with SN12C renal and in the experiment on SNB-19 CNS was over 100 µM throughout. Also, the TGI with SNB-75 CNS and in the experiment on UACC-257 melanoma was over 100 µM throughout.
Consider `Cc1ccc(CC(Cc2ccc(C)cc2C(=O)O)C(=O)O)cc1` (stereo not given), for which the TGI in the experiment with 786-0 renal, in the experiment on A498 renal, with A549 NSCLC, in the experiment on COLO 205 colon, in the experiment on HCT-15 colon and in the experiment with HOP-92 NSCLC was over 100 µM each time. For the same molecule, the TGI in the experiment with HS 578T breast, with IGROV1 ovarian, in the experiment on MALME-3M melanoma, in the experiment on MCF7 breast, in the experiment with MDA-MB-231 breast and in the experiment with OVCAR-5 ovarian was over 100 µM in each case. Moreover, the TGI in the experiment with OVCAR-8 ovarian, in the experiment with RXF 393 renal, with SF-268 CNS, in the experiment on SK-MEL-28 melanoma, with SN12C renal and with SNB-19 CNS was over 100 µM in each case. For the same molecule, the TGI with SNB-75 CNS and with UACC-257 melanoma was over 100 µM in each case.
As for `C#C[C@]1(O)CC[C@H]2[C@@H]3CCC4=C/C(=N\OCCN(CC)CC)CC[C@]4(C)[C@H]3CC[C@@]21C`, the TGI was 9.42 µM in the experiment with 786-0 renal; 28.9 µM in the experiment on A498 renal; over 41.4 µM with A549 NSCLC; 11.5 µM in the experiment with COLO 205 colon; 25.3 µM in the experiment on HCT-15 colon; 52.9 µM in the experiment with HOP-92 NSCLC. Further, the TGI with HS 578T breast was found to be 7.51 µM; in the experiment on IGROV1 ovarian, 17.1 µM; with MALME-3M melanoma it was 10.2 µM; with MCF7 breast it was 21.3 µM; with MDA-MB-231 breast, 35.2 µM; with OVCAR-5 ovarian, 32.2 µM. Besides, the TGI with OVCAR-8 ovarian was determined as 24.6 µM; in the experiment on RXF 393 renal, 7.35 µM; in the experiment with SF-268 CNS it was 10.8 µM; with SK-MEL-28 melanoma, 25.8 µM; in the experiment with SN12C renal, 46.8 µM; in the experiment with SNB-19 CNS, 18.5 µM. For the same molecule, the figures for the TGI in the experiment with SNB-75 CNS and in the experiment with UACC-257 melanoma were 10.9 µM and 16.9 µM, respectively.
Take `CN(C)CC1(Cc2ccccc2)CCC(Cc2ccccc2)C1=O` (stereo not given): the TGI in the experiment with 786-0 renal amounted to 4.37 µM; in the experiment with A498 renal, 29.8 µM; in the experiment with A549 NSCLC, 33.5 µM; with COLO 205 colon, 19.4 µM; in the experiment with HCT-15 colon, 13.3 µM; in the experiment with HOP-92 NSCLC, 40 µM. Further, the TGI in the experiment with HS 578T breast came out at 48.9 µM; in the experiment with IGROV1 ovarian, 24.1 µM; in the experiment with MALME-3M melanoma it was 27.2 µM; in the experiment with MCF7 breast it was 24.9 µM; in the experiment on MDA-MB-231 breast, 24.3 µM; in the experiment on OVCAR-5 ovarian it was 32.8 µM. Besides, the TGI with OVCAR-8 ovarian amounted to 18.2 µM; in the experiment on RXF 393 renal it was 27.5 µM; in the experiment with SF-268 CNS, 22.6 µM; with SK-MEL-28 melanoma, 26.6 µM; with SN12C renal, 23.9 µM; with SNB-19 CNS, 29.7 µM. Besides, the TGI was determined as 30 µM in the experiment with SNB-75 CNS and 29.1 µM in the experiment on UACC-257 melanoma.
On to `CC1(C)CCC[C@@]2(C)C1C(=O)[C@@H]1O[C@]1(C)[C@@H]2CO` (stereo not given in full), for which the TGI with 786-0 renal was over 100 µM; with A498 renal, over 100 µM; in the experiment on A549 NSCLC it was over 100 µM; in the experiment with COLO 205 colon it was 85.1 µM; in the experiment with HCT-15 colon it was over 100 µM; in the experiment with HOP-92 NSCLC, 88 µM. Further, the TGI with HS 578T breast, in the experiment with IGROV1 ovarian, in the experiment on MALME-3M melanoma, in the experiment on MCF7 breast, in the experiment with MDA-MB-231 breast and in the experiment with OVCAR-5 ovarian was over 100 µM throughout. The TGI with OVCAR-8 ovarian was over 100 µM; in the experiment on RXF 393 renal, 75.6 µM; with SF-268 CNS, over 100 µM; in the experiment with SK-MEL-28 melanoma, 80.9 µM; in the experiment on SN12C renal, over 100 µM; with SNB-19 CNS, over 100 µM. The TGI was 79 µM with SNB-75 CNS and over 100 µM in the experiment with UACC-257 melanoma.
In the case of `S=C1N=C(Cl)/C(=C\c2ccco2)N1`, the TGI with 786-0 renal, in the experiment with A498 renal, in the experiment on A549 NSCLC, with COLO 205 colon, with HCT-15 colon and in the experiment on HOP-92 NSCLC was over 100 µM throughout. For the same molecule, the TGI in the experiment on HS 578T breast, in the experiment with IGROV1 ovarian, in the experiment with MALME-3M melanoma, in the experiment on MCF7 breast, with MDA-MB-231 breast and with OVCAR-5 ovarian was over 100 µM throughout. Moreover, the TGI in the experiment on OVCAR-8 ovarian, in the experiment on RXF 393 renal, in the experiment on SF-268 CNS, with SK-MEL-28 melanoma, in the experiment on SN12C renal and in the experiment on SNB-19 CNS was over 100 µM throughout. Moreover, the TGI in the experiment with SNB-75 CNS and with UACC-257 melanoma was over 100 µM throughout.
